Patent US20250304559A1, “Ether-Linked Antiviral Compounds” (Pfizer Inc., priority 2021, published 2025)
Read-outs that look alike come from different tables or passages of the source.

Key:
SARS-CoV-2 3CL protease = target: T1, SARS-CoV-2 3CL protease (Severe acute respiratory syndrome coronavirus 2, UniProt P0DTD1); assay: SARS-CoV-2 Coronavirus 3C Protease FRET Assay; assay type: biochemical; details: Morrison equation fit, 15 nM enzyme, 25 μM peptide substrate
T1 construct: measures the activity of full-length SARS-CoV-2 3CL protease

[1] = test system: SARS-CoV-2 (USA_WA1/2020); assay: Antiviral Activity from SARS-CoV-2 Infection (cytopathic effect, Cell Titer-Glo); assay type: cell-based; details: tested alone or with P-gp inhibitor CP-100356 2 μM (table does not say which)
[2] = Examples 14-78 and 114 (second head of Table 2), read-out: Geometric Mean Ki (nM) IC50
[3] = Severe acute respiratory syndrome coronavirus 2, Vero C1008, 72 h, VeroE6 cells enriched for hACE2, MOI 0.002, 3-day incubation, read-out: Geometric Mean EC50
[4] = Examples 1-13, 60 minutes at 23° C., read-out: Geometric Mean Ki

Row | SMILES | Ki (SARS-CoV-2 3CL protease; [2]) [nM] | EC50 [1, 3] [nM] | Ki (SARS-CoV-2 3CL protease; [4]) [nM] | EC50 ([1]; Severe acute respiratory syndrome coronavirus 2, Vero C1008, 72 h, read-out: Geometric Mean EC50 (nM), VeroE6 cells enriched for hACE2, MOI 0.002, 3-day incubation) [nM] | EC50 ([1]; VeroE6 cells enriched for hACE2, MOI 0.002, 3-day incubation, read-out: Geometric Mean EC50) [nM]
1 | CC(C)(C)[C@H](NS(=O)(=O)C(F)(F)F)C(=O)N1C[C@H]2[C@@H]([C@H]1C(=O)N[C@@H](C[C@@H]1CC(=O)NC1=O)C(=O)COc1ccc(F)cc1F)C2(C)C [Example 44, (1R,2S,5S)-N-{(2S)-4-(2,4-difluorophenoxy)-1-[(3R)-2,5-dioxopyrrolidin-3-yl]-3-oxobutan-2-yl}-6,6-dimethyl-3-[3-methyl-N-(trifluoromethanesulfonyl)-L-valyl]-3-azabicyclo[3.1.0]hexane-2-carboxamide] | 8.95 | 408 |  |  | 
2 | CC(C)[C@H](NC(=O)C(F)(F)F)C(=O)N1C[C@H]2[C@@H]([C@H]1C(=O)N[C@@H](C[C@@H]1CCNC1=O)C(=O)COc1ccccc1)C2(C)C [Example 23, (1R,2S,5S)-6,6-dimethyl-N-{(2S)-3-oxo-1-[(3S)-2-oxopyrrolidin-3-yl]-4-phenoxybutan-2-yl}-3-[N-(trifluoroacetyl)-L-valyl]-3-azabicyclo[3.1.0]hexane-2-carboxamide] | 1.78 | 32 |  |  | 
3 | CC(C)[C@H](NS(=O)(=O)C(F)(F)F)C(=O)N1C[C@H]2[C@@H]([C@H]1C(=O)N[C@@H](C[C@@H]1CCNC1=O)C(=O)COc1ccc(F)cc1F)C2(C)C [Example 4, (1R,2S,5S)-N-{(2S)-4-(2,4-difluorophenoxy)-3-oxo-1-[(3S)-2-oxopyrrolidin-3-yl]butan-2-yl}-6,6-dimethyl-3-{N-[(trifluoromethyl)sulfonyl]-L-valyl}-3-azabicyclo[3.1.0]hexane-2-carboxamide] |  | 395 | 6.34 |  | 
4 | CC(C)[C@H](NC(=O)C(F)(F)F)C(=O)N1C[C@H]2[C@@H]([C@H]1C(=O)N[C@H](C[C@@H]1CCNC1=O)C(=O)COc1ccc(F)cc1F)C2(C)C [Example 2, (1R,2S,5S)-N-{(2R)-4-(2,4-difluorophenoxy)-3-oxo-1-[(3S)-2-oxopyrrolidin-3-yl]butan-2-yl}-6,6-dimethyl-3-[N-(trifluoroacetyl)-L-valyl]-3-azabicyclo[3.1.0]hexane-2-carboxamide] |  | 74.4 | 172 |  | 
5 | CC(C)[C@H](NC(=O)C(F)(F)F)C(=O)N1C[C@H]2[C@@H]([C@H]1C(=O)N[C@@H](C[C@@H]1CCNC1=O)C(=O)COc1ccc(F)cc1)C2(C)C [Example 52, (1R,2S,5S)-N-{(2S)-4-(4-fluorophenoxy)-3-oxo-1-[(3S)-2-oxopyrrolidin-3-yl]butan-2-yl}-6,6-dimethyl-3-[N-(trifluoroacetyl)-L-valyl]-3-azabicyclo[3.1.0]hexane-2-carboxamide] | 10.5 | 73.3 |  |  | 
6 | CCC([C@H](NC(=O)C(F)(F)F)C(=O)N1C[C@H]2[C@@H]([C@H]1C(=O)N[C@@H](C[C@@H]1CCNC1=O)C(=O)COc1ccc(F)cc1F)C2(C)C)C(F)(F)F (stereo in doubt) [Example 57, (1R,2S,5S)-N-{(2S)-4-(2,4-difluorophenoxy)-3-oxo-1-[(3S)-2-oxopyrrolidin-3-yl]butan-2-yl}-6,6-dimethyl-3-[3′,3′,3′-trifluoro-N-(trifluoroacetyl)-L-isoleucyl]-3-azabicyclo[3.1.0]hexane-2-carboxamide] | 17.3 | 275 |  |  | 
7 | CC(C)(C)[C@H](NS(=O)(=O)C(F)(F)F)C(=O)N1C[C@H]2[C@@H]([C@H]1C(=O)N[C@@H](C[C@@H]1CCNC1=O)C(=O)COc1ccc(F)cc1)C2(C)C [Example 29, (1R,2S,5S)-N-{(2S)-4-(4-fluorophenoxy)-3-oxo-1-[(3S)-2-oxopyrrolidin-3-yl]butan-2-yl}-6,6-dimethyl-3-[3-methyl-N-(trifluoromethanesulfonyl)-L-valyl]-3-azabicyclo[3.1.0]hexane-2-carboxamide] | 4.69 |  |  | 57 | 
8 | COCC(=O)[C@H](C[C@@H]1CCNC1=O)NC(=O)C1C[C@H](C(C)(C)C)CCN1C(=O)[C@@H](NS(=O)(=O)C(F)(F)F)C(C)C (single isomer, unassigned) [Example 77, (2R*,4S*)-4-tert-butyl-N-{(2S)-4-methoxy-3-oxo-1-[(3S)-2-oxopyrrolidin-3-yl]butan-2-yl}-1-[N-(trifluoromethanesulfonyl)-L-valyl]piperidine-2-carboxamide, DIAST-2] | > 10800 | > 100000 |  |  | 
9 | Cc1noc(OCC(=O)[C@H](C[C@@H]2CCNC2=O)NC(=O)[C@@H]2[C@@H]3[C@H](CN2C(=O)[C@@H](NC(=O)C(F)(F)F)C(C)C)C3(C)C)n1 [Example 76, (1R,2S,5S)-6,6-dimethyl-N-{(2S)-4-[(3-methyl-1,2,4-oxadiazol-5-yl)oxy]-3-oxo-1-[(3S)-2-oxopyrrolidin-3-yl]butan-2-yl}-3-[N-(trifluoroacetyl)-L-valyl]-3-azabicyclo[3.1.0]hexane-2-carboxamide] | 3840 | > 100000 |  |  | 
10 | CC(C)[C@H](NS(C)(=O)=O)C(=O)N1CCC2(CC2)C[C@H]1C(=O)N[C@@H](C[C@@H]1CCNC1=O)C(=O)COc1ccc(F)cc1F (single isomer, unassigned) [Example 66, (5R*)-N-{(2S)-4-(2,4-difluorophenoxy)-3-oxo-1-[(3S)-2-oxopyrrolidin-3-yl]butan-2-yl}-6-[N-(methanesulfonyl)-L-valyl]-6-azaspiro[2.5]octane-5-carboxamide, DIAST-2] | 15.7 |  |  |  | 669
11 | CC(C)(C)[C@H](NS(=O)(=O)C(F)(F)F)C(=O)N1C[C@H]2[C@@H]([C@H]1C(=O)N[C@@H](C[C@@H]1CC(O)NC1=O)C(=O)COc1ccc(F)cc1F)C2(C)C (stereo partly drawn) [Example 38, (1R,2S,5S)-N-{(2S)-4-(2,4-difluorophenoxy)-1-[(3R)-5-hydroxy-2-oxopyrrolidin-3-yl]-3-oxobutan-2-yl}-6,6-dimethyl-3-[3-methyl-N-(trifluoromethanesulfonyl)-L-valyl]-3-azabicyclo[3.1.0]hexane-2-carboxamide] | 4.12 | 1390 |  |  | 
12 | CC(C)(C)[C@H](NS(=O)(=O)C(F)(F)F)C(=O)N1C[C@H]2[C@@H]([C@H]1C(=O)N[C@H](C[C@@H]1CCNC1=O)C(=O)COc1ccc(F)cc1F)C2(C)C [Example 68, (1R,2S,5S)-N-{(2R)-4-(2,4-difluorophenoxy)-3-oxo-1-[(3S)-2-oxopyrrolidin-3-yl]butan-2-yl}-6,6-dimethyl-3-[3-methyl-N-(trifluoromethanesulfonyl)-L-valyl]-3-azabicyclo[3.1.0]hexane-2-carboxamide] | 129 | 97 |  |  | 
13 | CC(C)[C@H](NC(=O)C(F)(F)F)C(=O)N1C[C@H]2[C@@H]([C@H]1C(=O)N[C@@H](C[C@@H]1CCNC1=O)C(=O)COc1cccc(Cl)c1)C2(C)C [Example 50, (1R,2S,5S)-N-{(2S)-4-(3-chlorophenoxy)-3-oxo-1-[(3S)-2-oxopyrrolidin-3-yl]butan-2-yl}-6,6-dimethyl-3-[N-(trifluoroacetyl)-L-valyl]-3-azabicyclo[3.1.0]hexane-2-carboxamide] | 10.7 | 76.2 |  |  | 
14 | CC(C)[C@H](NS(=O)(=O)C(F)(F)F)C(=O)N1C[C@H]2[C@@H]([C@H]1C(=O)N[C@@H](C[C@@H]1CCNC1=O)C(=O)COc1cccc(C(F)(F)F)c1)C2(C)C [Example 5, (1R,2S,5S)-6,6-dimethyl-N-{(2S)-3-oxo-1-[(3S)-2-oxopyrrolidin-3-yl]-4-[3-(trifluoromethyl)phenoxy]butan-2-yl}-3-{N-[(trifluoromethyl)sulfonyl]-L-valyl}-3-azabicyclo[3.1.0]hexane-2-carboxamide] |  | 205 | 10.6 |  | 
15 | CC(C)[C@H](NS(C)(=O)=O)C(=O)N1CCC(C)(C)CC1C(=O)N[C@@H](C[C@@H]1CCNC1=O)C(=O)COc1ccc(F)cc1F (single isomer, unassigned) [Example 60, (2R*)-N-{(2S)-4-(2,4-difluorophenoxy)-3-oxo-1-[(3S)-2-oxopyrrolidin-3-yl]butan-2-yl}-1-[N-(methanesulfonyl)-L-valyl]-4,4-dimethylpiperidine-2-carboxamide] | 21.8 | 456 |  |  | 
16 | CC(C)[C@H](NS(=O)(=O)C(F)(F)F)C(=O)N1C[C@H]2[C@@H]([C@H]1C(=O)N[C@@H](C[C@@H]1CC(O)NC1=O)C(=O)COc1ccc(F)cc1F)C2(C)C (stereo partly drawn) [Example 54, (1R,2S,5S)-N-{(2S)-4-(2,4-difluorophenoxy)-1-[(3R)-5-hydroxy-2-oxopyrrolidin-3-yl]-3-oxobutan-2-yl}-6,6-dimethyl-3-[N-(trifluoromethanesulfonyl)-L-valyl]-3-azabicyclo[3.1.0]hexane-2-carboxamide] | 11.3 | 2250 |  |  | 
17 | CC(C)[C@H](NC(=O)C(F)(F)F)C(=O)N1C[C@H]2[C@@H]([C@H]1C(=O)N[C@@H](C[C@@H]1CCNC1=O)C(=O)COc1ccc(F)c(F)c1)C2(C)C [Example 48, (1R,2S,5S)-N-{(2S)-4-(3,4-difluorophenoxy)-3-oxo-1-[(3S)-2-oxopyrrolidin-3-yl]butan-2-yl}-6,6-dimethyl-3-[N-(trifluoroacetyl)-L-valyl]-3-azabicyclo[3.1.0]hexane-2-carboxamide] | 7.87 | 44.3 |  |  | 
18 | CC(C)[C@H](NC(=O)C(F)(F)F)C(=O)N1C[C@H]2[C@@H]([C@H]1C(=O)N[C@@H](C[C@@H]1CCNC1=O)C(=O)COc1cc(F)ccc1F)C2(C)C [Example 53, (1R,2S,5S)-N-{(2S)-4-(2,5-difluorophenoxy)-3-oxo-1-[(3S)-2-oxopyrrolidin-3-yl]butan-2-yl}-6,6-dimethyl-3-[N-(trifluoroacetyl)-L-valyl]-3-azabicyclo[3.1.0]hexane-2-carboxamide] | 12 | 72.8 |  |  | 
